# Tests used:
# GLP-1 release = conditions: cited from earlier work
# IEL γδ (gd) T cells = assay: IEL γδ T cell IL-17A production and γδ T cell depletion in DSS colitis of NFD fed mice; type: in vivo, mouse
# Description: EcN or EcN HldSE (5×10^9 CFU/mouse) was gavaged daily starting three days prior to DSS administration. gd T cells were depleted by administration of neutralizing antibodies i.p. every other day. […] EcN or EcN HldSE (5×10^9 CFU/mouse) was gavaged daily starting three days prior to DSS administration. gd T cells were depleted by administration of neutralizing antibodies i.p. every other day. N=3-5 mice/group, one experiment. […] EcN or EcN HldSE (5×10^9 CFU/mouse) was gavaged daily starting three days prior to DSS administration. gd T cells were depleted by administration of neutralizing antibodies i.p. every other day. N=3-5 mice/group, one experiment.
# [1] = system: acute DSS colitis in NFD/FDD fed mice; assay: Acute DSS colitis in mice fed fiber-deficient (no fiber) diet; type: in vivo, mouse
# Method: (§1) Mice and diets C57BL/6J and Il10^−/− mice were purchased from Jackson Laboratory. Animals were purchased from maximum barrier rooms and maintained in high barrier animal rooms at Columbia University. All mice were maintained under specific-pathogen-free (SPF) conditions for the duration of the experiments. All experiments were performed under IACUC approved guidelines. To control for microbiota and cage effects, mice were shuffled between cages before the start of each experiment and randomly assigned to each group. All experiments were performed with gender and age (8-12 weeks at start of experiment) matched mice. Animals were maintained on normal diet (PicoLab Rodent Diet 20, 5053) until start of experiments and then switched to fiber-deficient diet (Teklad Custom Diet, TD.00278) or continued on ND as indicated. ND contained 21% protein, 53.4% carbohydrates, 5% fat, 5% fiber and 4 kcal/g. FDD contained 19.3% protein, 64.8% carbohydrates, 5.1% fat and no fiber, overall the diet provides 3.9 kcal/g.
# (§2) DSS colitis and GLP-1 modulating therapies For induction of acute DSS colitis, between 0.5% to 6% w/v dextran sulfate sodium (DSS, colitis grade, MPbio) was supplemented in drinking water for five days. Drinking water was furthermore enriched with 2% w/v sucrose for all groups. Mice were switched to FDD seven days prior to DSS supplementation or maintained on ND during course of experiment. As indicated, FDD mice were i.p. injected with 0.1 μg/g GLP-1 receptor agonist (Exendin-4, AS-24463, AnaSpec) or 0.4 μg/g GLP-1 receptor antagonist (Exendin-9-39, AS-24467, AnaSpec) in 100 μl PBS every day starting one day before start of DSS. Additionally, mice were orally gavaged with either 10^10 CFU E. coli Nissle (EcN) or 10^10 CFU E. coli Nissle-HldSE (EcN-HldSE) every day starting one day prior to DSS supplementation. Of note, tissue samples for RNA-sequencing analysis are derived from mice either gavaged with EcN (control and GLP-1 receptor agonist groups) or EcN-HldSE (EcN-HldSE and GLP-1 receptor antagonist groups). Mice were monitored daily for changes in body weight. After five days, mice were euthanized for blood and tissue sampling.
# Histological analyses The colonic tissue was carefully rinsed with PBS to remove fecal matter. Colon and small intestine was fixated in 10% formalin for >24 hours and embedded in paraffin. 5 μm section were stained with H&E, Alcian Blue and Immunohistochemistry (IHC) staining for GLP-1 (GLP-1 polyclonal antibody, PA5-79303, Invitrogen). A pathologist assessed and scored H&E stained slides for colitis grading.
# Plating for liver colony forming units (CFU) For bacterial extraction from liver tissue, livers were first weighed and then transferred into sterile stainless steel microvials (Biospec #2007) containing two stainless steel beads (6.35 mm, Biospec #11079635SS) and capped with silicone rubber caps (Biospec #2008). The vials were subsequently filled with 500 μL of sterile phosphate-buffered saline (PBS), and the tubes were placed on ice to prevent bacterial growth. The samples were homogenized using a Mini-BeadBeater-16 (BioSpec) with three cycles of 30 seconds at 4° C. After extraction, the samples were diluted as needed in PBS, and 100 μL of the diluted solution was plated onto Luria-Bertani (LB) agar plates (2% agar). The plates were thoroughly dried and incubated at 37° C. overnight. Colony-forming units (CFU) were counted the following day and normalized to tissue weight.
# Plasma analyses GLP-1 and pro-inflammatory cytokine measurements were performed from plasma samples. After euthanasians, blood was drawn from mice with needles coated with EDTA to stop coagulation. Blood samples were pelleted by centrifugation for 10 min at 15000 rpm at 4° C. Supernatant was transferred to a new tube, snap frozen and stored at −80° C. GLP-1 ELISA (GLP-1 Multispecies ELISA kit, BMS2194, Invitrogen) and LEGENDplex Mouse Inflammation Panel (740446, BioLegend) were performed according to manufacturer protocol. […]
# [2] = system: acute DSS colitis in NC/ND fed mice; assay: Acute DSS colitis in mice fed normal chow / normal diet; type: in vivo, mouse; conditions: five days DSS colitis
# Method: as §1, §2
# Plating for liver colony forming units (CFU) For bacterial extraction from liver tissue, livers were first weighed and then transferred into sterile stainless steel microvials (Biospec #2007) containing two stainless steel beads (6.35 mm, Biospec #11079635SS) and capped with silicone rubber caps (Biospec #2008). […] Colony-forming units (CFU) were counted the following day and normalized to tissue weight.
# Here, mice with low fiber diets were treated with DSS for […] with or without the engineered Nissle HldSE (FIG. 3A) Treatment with Nissle HldSE improved barrier function measured based on infiltrating gut bacteria in liver (Liver CFU; FIG. 3C). […]
# [3] = system: acute DSS colitis in NFD/FDD fed mice; assay: Acute DSS colitis in mice fed fiber-deficient (no fiber) diet; type: in vivo, mouse; conditions: five days DSS colitis
# [4] = system: colon tissue gene expression; assay: RNA-sequencing of colon tissue of FDD mice during DSS colitis; type: in vivo, mouse
# Method: as §2
# RNA colonic transcriptomics For mRNA sequencing using the Illumina platform, total RNA was first extracted from tissue using TRItol reagent. The extracted RNA was quantified using Bioanalyzer to ensure high-quality RNA (RIN>7) for further library preparation. Poly-A mRNA was isolated using the Dynabeads™ mRNA Purification Kit (Thermo Fisher, #61006), followed by fragmentation with the NEBNext Ultra II RNA Library Prep Kit (New England Biolabs, #E7770) at 94° C. for 8 minutes. First-strand cDNA synthesis was performed using SuperScript IV Reverse Transcriptase (Thermo Fisher, #18090050), followed by second-strand cDNA synthesis. […] Libraries were validated for quality and size distribution using 2% agarose gel and enriched using size selection beads to eliminate any cDNA below 350 bp, and quantified using a Qubit 4 Fluorometer (Thermo Fisher, #Q33226). Sequencing was performed on an Illumina NextSeq550 platform using paired-end 150 bp reads high output.
# Post-sequencing, FastQC (v0.11.9) was employed to assess raw read quality, evaluating metrics such as per-base sequence quality (Q30 or higher), GC content, and potential adapter contamination. […] Reads alignment and transcripts quantification of gene expression were done using Kallisto (v0.46.1) and DESeq2 (v1.30.1) was then used for differential expression analysis, incorporating normalization and variance-stabilizing transformation to account for differences in sequencing depth and library size. […]
# [5] = FDD mice, DSS colitis, EcN-HldSE treatment plus antagonist injection
# [6] = FDD mice, five days DSS colitis, agonist 0.1 μg/g i.p. daily or 10^10 CFU gavage daily
substance,measurement,setting,value
MAADIISTIGDLVKWIIDTVNKFKK [HldSE],GLP-1 release in vitro,GLP-1 release,induce
same,IL-17A production by γδ T cells,IEL γδ (gd) T cells; IEL γδ T cells after 6 days of DSS treatment of NFD fed mice,upregulation
same,efficacy of the peptide after depletion of γδ T cells,"IEL γδ (gd) T cells; experimental depletion of γδ T cells, NFD fed mice, DSS","notable, albeit not exhaustive, diminishment"
Exendin-9-39 [GLP-1 receptor antagonist],protective effects of the engineered probiotic,"[1]; FDD mice, DSS colitis, EcN-HldSE treatment plus antagonist 0.4 μg/g i.p. daily",abolished
same,colon length,[1]; [5],shorter
same,level of circulating pro-inflammatory cytokines,[1]; [5],elevated
same,number of bacteria in the liver,[1]; [5],drastically increased
same,weight loss,[1]; [5],severe
same,bacterial dissemination into the liver,[2],higher
same,colon shortening,[2],greater
same,disease severity,[2],exacerbated
same,weight loss,[2],more
Exendin-4 [GLP-1 receptor agonist],L-cell numbers (GLP-1 staining) in colon,[1]; FDD mice during DSS colitis,increase
same,goblet cell numbers (Alcian Blue staining) in colon,[1]; FDD mice during DSS colitis,remained unchanged
same,histological colitis score,"[1]; FDD mice, DSS colitis",improved
same,colitis outcome in dysbiotic mice,"[1]; FDD mice, DSS colitis, figure headlines FIGS. 10, 11",ameliorate
same,"circulating (pro-)inflammatory cytokines (TNF-α, IL-1α, IL-6, MCP-1)","[1]; FDD mice, five days DSS colitis, plasma",lower
same,colon shortening,[1]; [6],less
same,weight loss,[1]; [6],reduced
same,CFU levels in the liver (bacteria dissemination into the liver),[3],significantly reduced
same,"genes linked to ribosome biogenesis, cell cycle and DNA replication and inflammatory signaling",[4]; colon of FDD mice during colitis,downregulated
same,DEGs commonly upregulated in the colon with EcN-HldSE and the GLP-1 receptor agonist,"[4]; colon of FDD mice, DSS colitis, versus EcN control",~50%
same,genes associated with homeostasis and recovery phases (GSEA),"[4]; colon of FDD mice, acute colitis, DSS colitis time-series dataset",enrichment
same,"genes involved in lipid metabolism, tight junctions and epithelial structure maintenance","[4]; over-representation analysis, colon of FDD mice during DSS colitis",upregulation

# Reference: patent publication US20260218210A1, “ENGINEERED BACTERIA FOR CELLULAR BARRIER M[…] PROTECTION” (The Trustees of Columbia University in the City of New York, priority 2023, published 2026)
